Measured values taken from PMC4503722, “Novel Phenotypic Outcomes Identified for a Public Collection of Approved Drugs from a Publicly Accessible Panel of Assays” (PLoS ONE, 2015).
Like-named read-outs stand apart in the source and are kept apart here.

Columns and labels:
HeLa cells = assay: cells; type: cell-based; conditions: HeLa, read-out: CellCycle G2/M
DLD-1 = assay: cells; type: cell-based
NCI-H716 cells = assay: cells; type: cell-based, Human
[1] = system: nuclear β-catenin in C2C12 cells; assay: cells; type: cell-based
hp70S6K1 (RPS6KB1) = target: T1, hp70S6K1 (RPS6KB1) (Homo sapiens, UniProt P23443); assay: Cerep LANCE kinase assay hp70S6K1 (S1 assay 31); type: biochemical; conditions: read-out: p70S6K1
T1 construct: purchased Cerep (LANCE kinase assay platform, contract assay)

hKDR = target: T2, hKDR (Homo sapiens, UniProt P35968); assay: Cerep LANCE kinase assay hKDR (S1 assay 32); type: biochemical
T2 construct: purchased Cerep (LANCE kinase assay platform, contract assay)

[2] = system: HCT116 cells treated with a GSK3β inhibitor; assay: cells; type: cell-based
hJAK2 = target: T3, hJAK2 (Homo sapiens, UniProt O60674); assay: Cerep LANCE kinase assay hJAK2 (S1 assay 33); type: biochemical; conditions: read-out: JAK2
T3 construct: purchased Cerep (LANCE kinase assay platform, contract assay)

HCT116 = assay: cells; type: cell-based
[3] = system: endothelial tube formation in co-cultures of ECFCs and ADSCs treated with VEGF; assay: cells; type: cell-based, human; conditions: read-out: Anti-Angiogenesis
SW480 = assay: cells; type: cell-based
hGSK3b = target: T4, hGSK3b (Homo sapiens, UniProt P49841); assay: Cerep LANCE kinase assay hGSK3b (S1 assay 34); type: biochemical; conditions: read-out: GSK3b
T4 construct: purchased Cerep (LANCE kinase assay platform, contract assay)

hFLT3 = target: T5, hFLT3 (Homo sapiens, UniProt P36888); assay: Cerep LANCE kinase assay hFLT3 (S1 assay 35); type: biochemical; conditions: read-out: FLT3
T5 construct: purchased Cerep (LANCE kinase assay platform, contract assay)

INS-1E cells = assay: cells; type: cell-based, rat; conditions: read-out: Insulin Secretion
[4] = Homo sapiens, DLD-1, read-out: Basal_Viability ATP DLD-1
[5] = Homo sapiens, NCI-H716, read-out: GLP 1 Secretion
[6] = Mus musculus, C2C12, read-out: Wnt Pathway
[7] = Homo sapiens, HCT-116, read-out: GSK3b inh pretreated_Viability ATP HCT116
[8] = Homo sapiens, HCT-116, read-out: Basal_Viability ATP HCT116
[9] = Homo sapiens, SW480, read-out: Basal_Viability ATP SW480
[10] = Homo sapiens, DLD-1, basal, read-out: Basal_Viability ATP DLD-1
[11] = Homo sapiens, IC50 / EC50, NCI-H716, read-out: GLP 1 Secretion
[12] = Mus musculus, C2C12, IC50 / EC50, C2C12 beta-catenin translocation, read-out: Wnt Pathway
[13] = Homo sapiens, HCT-116, basal, read-out: Basal_Viability ATP HCT116
[14] = Homo sapiens, IC50 / EC50, endothelial tube area, ADSC/ECFC co-culture
[15] = Homo sapiens, SW480, basal, read-out: Basal_Viability ATP SW480
[16] = Rattus norvegicus, IC50 / EC50, INS-1E
[17] = S2 Table, 20 = no response at highest concentration
[18] = basal, DLD-1, read-out: Basal_Viability ATP DLD-1
[19] = S2 Table, module primary assay, 20 / 20.1 codes per legend, read-out: GLP 1 Secretion
[20] = HCT116 pretreated with GSK3b inhibitor, read-out: GSK3b inh pretreated_Viability ATP HCT116
[21] = basal, HCT116, read-out: Basal_Viability ATP HCT116
[22] = basal, SW480, read-out: Basal_Viability ATP SW480
[23] = S2 Table, module primary assay, 20 / 20.1 codes per legend

T2 sequence (P35968 20-1356): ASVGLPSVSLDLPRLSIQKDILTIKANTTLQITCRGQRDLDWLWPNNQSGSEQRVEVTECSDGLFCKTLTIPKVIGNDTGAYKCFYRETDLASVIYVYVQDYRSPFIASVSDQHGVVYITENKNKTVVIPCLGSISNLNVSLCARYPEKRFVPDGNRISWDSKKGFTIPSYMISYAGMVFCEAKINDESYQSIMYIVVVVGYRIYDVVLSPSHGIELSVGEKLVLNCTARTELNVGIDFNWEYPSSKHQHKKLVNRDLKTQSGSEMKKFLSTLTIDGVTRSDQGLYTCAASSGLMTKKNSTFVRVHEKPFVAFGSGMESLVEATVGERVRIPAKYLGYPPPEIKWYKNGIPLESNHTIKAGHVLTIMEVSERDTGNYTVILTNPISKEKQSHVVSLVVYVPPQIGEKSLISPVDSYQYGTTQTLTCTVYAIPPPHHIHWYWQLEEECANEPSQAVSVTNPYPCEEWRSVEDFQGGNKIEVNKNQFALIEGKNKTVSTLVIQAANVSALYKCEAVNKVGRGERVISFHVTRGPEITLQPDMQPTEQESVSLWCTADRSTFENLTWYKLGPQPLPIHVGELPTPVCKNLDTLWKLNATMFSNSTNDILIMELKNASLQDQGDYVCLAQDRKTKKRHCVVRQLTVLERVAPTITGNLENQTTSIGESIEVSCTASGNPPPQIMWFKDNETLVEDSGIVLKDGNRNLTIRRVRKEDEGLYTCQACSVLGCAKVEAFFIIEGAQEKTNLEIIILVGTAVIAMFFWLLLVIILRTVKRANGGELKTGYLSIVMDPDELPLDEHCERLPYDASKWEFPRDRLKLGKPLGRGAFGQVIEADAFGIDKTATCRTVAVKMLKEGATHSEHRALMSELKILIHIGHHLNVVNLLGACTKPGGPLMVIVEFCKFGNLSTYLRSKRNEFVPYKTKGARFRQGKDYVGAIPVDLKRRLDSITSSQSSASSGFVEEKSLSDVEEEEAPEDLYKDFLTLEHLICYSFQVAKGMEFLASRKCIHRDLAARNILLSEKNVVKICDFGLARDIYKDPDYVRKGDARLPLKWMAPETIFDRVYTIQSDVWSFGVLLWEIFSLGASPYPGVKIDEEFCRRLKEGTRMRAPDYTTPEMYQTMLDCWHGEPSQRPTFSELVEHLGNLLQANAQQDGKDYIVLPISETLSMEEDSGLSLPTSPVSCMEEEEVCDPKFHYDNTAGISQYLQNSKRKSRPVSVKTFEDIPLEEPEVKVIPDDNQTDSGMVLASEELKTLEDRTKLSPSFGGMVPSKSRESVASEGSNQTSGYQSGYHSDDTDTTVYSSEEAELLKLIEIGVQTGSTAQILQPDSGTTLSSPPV
T4 sequence (P49841 whole entry): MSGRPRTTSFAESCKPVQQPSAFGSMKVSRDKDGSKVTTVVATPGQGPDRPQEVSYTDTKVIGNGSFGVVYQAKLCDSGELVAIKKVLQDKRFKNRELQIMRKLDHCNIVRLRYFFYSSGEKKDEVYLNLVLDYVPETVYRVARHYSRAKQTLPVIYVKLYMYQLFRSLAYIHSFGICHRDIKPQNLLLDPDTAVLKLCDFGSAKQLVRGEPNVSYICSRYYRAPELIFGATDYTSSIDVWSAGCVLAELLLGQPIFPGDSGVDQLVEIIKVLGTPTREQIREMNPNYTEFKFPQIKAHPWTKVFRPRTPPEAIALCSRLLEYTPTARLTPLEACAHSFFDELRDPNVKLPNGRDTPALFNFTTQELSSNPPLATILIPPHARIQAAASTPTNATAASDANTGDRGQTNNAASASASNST
T5 sequence (P36888 27-993): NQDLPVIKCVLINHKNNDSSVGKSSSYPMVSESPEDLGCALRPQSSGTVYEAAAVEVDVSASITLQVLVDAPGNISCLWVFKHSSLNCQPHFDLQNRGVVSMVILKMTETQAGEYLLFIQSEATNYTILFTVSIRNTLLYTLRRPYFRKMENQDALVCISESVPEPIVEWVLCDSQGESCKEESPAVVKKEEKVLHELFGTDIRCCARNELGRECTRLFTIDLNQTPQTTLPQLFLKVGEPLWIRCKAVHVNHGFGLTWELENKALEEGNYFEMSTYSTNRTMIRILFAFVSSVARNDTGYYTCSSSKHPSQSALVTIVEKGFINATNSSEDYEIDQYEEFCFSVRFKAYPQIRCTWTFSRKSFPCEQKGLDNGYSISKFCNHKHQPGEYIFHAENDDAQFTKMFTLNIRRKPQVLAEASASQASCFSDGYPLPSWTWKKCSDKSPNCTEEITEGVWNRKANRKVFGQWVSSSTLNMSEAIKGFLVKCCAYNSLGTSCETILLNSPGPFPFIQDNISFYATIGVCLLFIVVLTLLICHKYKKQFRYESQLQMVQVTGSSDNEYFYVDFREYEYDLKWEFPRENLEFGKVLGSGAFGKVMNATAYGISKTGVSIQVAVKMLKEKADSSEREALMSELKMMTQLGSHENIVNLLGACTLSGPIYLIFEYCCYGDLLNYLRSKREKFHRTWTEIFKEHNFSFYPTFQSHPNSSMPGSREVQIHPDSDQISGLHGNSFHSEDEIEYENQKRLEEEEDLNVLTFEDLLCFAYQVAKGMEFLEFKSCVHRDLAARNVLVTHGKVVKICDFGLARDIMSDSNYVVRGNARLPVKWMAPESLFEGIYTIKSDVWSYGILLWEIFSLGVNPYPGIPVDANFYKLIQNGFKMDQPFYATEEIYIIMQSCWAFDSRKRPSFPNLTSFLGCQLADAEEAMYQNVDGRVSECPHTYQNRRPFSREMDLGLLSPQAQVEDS
T3 sequence (O60674 whole entry): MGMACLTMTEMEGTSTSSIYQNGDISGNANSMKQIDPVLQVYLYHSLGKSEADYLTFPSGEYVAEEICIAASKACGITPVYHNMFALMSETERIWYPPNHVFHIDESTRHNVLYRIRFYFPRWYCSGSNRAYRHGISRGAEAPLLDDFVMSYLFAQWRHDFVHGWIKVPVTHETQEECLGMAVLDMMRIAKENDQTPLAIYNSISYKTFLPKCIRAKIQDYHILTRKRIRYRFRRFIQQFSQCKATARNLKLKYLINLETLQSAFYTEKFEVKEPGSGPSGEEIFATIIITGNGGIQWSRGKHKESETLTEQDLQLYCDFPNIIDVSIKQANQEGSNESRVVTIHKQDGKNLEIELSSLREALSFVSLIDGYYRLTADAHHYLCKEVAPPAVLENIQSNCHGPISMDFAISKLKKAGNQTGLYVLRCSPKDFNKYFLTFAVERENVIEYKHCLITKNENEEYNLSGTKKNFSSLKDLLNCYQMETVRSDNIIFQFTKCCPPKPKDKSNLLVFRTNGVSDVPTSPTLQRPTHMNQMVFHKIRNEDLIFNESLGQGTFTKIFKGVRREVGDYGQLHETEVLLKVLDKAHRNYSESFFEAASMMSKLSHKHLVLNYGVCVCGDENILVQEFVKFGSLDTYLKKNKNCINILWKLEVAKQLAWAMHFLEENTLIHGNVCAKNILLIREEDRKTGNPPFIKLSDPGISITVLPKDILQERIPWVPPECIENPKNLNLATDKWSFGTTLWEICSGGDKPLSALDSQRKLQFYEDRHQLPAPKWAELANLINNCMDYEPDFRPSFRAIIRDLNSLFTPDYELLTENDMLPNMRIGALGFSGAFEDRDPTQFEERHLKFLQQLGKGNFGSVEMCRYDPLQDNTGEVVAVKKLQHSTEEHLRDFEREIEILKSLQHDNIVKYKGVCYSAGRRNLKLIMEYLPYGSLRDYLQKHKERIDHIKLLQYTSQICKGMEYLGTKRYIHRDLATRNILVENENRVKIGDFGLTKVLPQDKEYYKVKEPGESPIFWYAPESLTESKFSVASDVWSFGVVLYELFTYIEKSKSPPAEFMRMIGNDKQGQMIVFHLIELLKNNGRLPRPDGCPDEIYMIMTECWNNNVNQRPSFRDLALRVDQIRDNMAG
T1 sequence (P23443 whole entry): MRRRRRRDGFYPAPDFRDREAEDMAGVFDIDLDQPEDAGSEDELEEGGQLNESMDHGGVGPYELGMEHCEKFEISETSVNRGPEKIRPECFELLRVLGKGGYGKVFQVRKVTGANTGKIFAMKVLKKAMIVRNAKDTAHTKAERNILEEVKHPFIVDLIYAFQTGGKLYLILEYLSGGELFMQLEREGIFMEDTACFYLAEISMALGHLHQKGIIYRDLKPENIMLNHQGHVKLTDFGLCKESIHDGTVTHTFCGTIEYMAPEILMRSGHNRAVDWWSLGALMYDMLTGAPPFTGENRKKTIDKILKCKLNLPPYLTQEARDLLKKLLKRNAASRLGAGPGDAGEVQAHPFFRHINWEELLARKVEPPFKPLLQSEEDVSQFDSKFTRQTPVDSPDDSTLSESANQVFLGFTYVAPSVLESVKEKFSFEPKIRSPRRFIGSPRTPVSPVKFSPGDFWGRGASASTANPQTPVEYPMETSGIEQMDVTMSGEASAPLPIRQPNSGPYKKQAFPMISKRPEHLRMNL

In the case of `CC(=O)[C@]1(O)Cc2c(O)c3c(c(O)c2[C@@H](O[C@H]2C[C@H](N)[C@H](O)[C@H](C)O2)C1)C(=O)c1ccccc1C3=O` [Idarubicin], the EC50 (HeLa cells; Homo sapiens) is reported as over 10 µM, the IC50 (DLD-1; [4]) is reported as 0.387 µM and the EC50 (NCI-H716 cells; [5]) is reported as over 10 µM. For the same molecule, the EC50 [1, 6] was 100 nM, the IC50 (hp70S6K1 (RPS6KB1); kinase assay) was over 20 µM and the IC50 (hKDR; kinase assay, read-out: KDR) was over 20 µM. For the same molecule, the IC50 [2, 7] was 100 nM, the IC50 (hJAK2; kinase assay) was over 20 µM and the IC50 (HCT116; [8]) was 66.7 nM. It also gave an IC50 ([3]; Homo sapiens) of 20.8 nM, an IC50 (SW480; [9]) of 4.75 µM and an IC50 (hGSK3b; kinase assay) of over 20 µM. The IC50 (hFLT3; kinase assay) was over 20 µM and the EC50 (INS-1E cells; Rattus norvegicus, INS-1E) was over 10 µM.
`COC(=O)Nc1nc2ccc(C(=O)c3ccccc3)cc2[nH]1` [Mebendazole] was tested, and the EC50 (HeLa cells; Homo sapiens) was 0.08 µM, the IC50 (DLD-1; [4]) was 10.1 µM and the EC50 (NCI-H716 cells; [5]) was over 10 µM. The EC50 [1, 6] was 245 nM, the IC50 (hp70S6K1 (RPS6KB1); kinase assay) was over 20 µM and the IC50 (hKDR) was 1.43 µM. For the same molecule, the IC50 [2, 7] was over 20000 nM, the IC50 (hJAK2; kinase assay) was over 20 µM and the IC50 (HCT116; [8]) was 8260 nM. It also gave an IC50 ([3]; Homo sapiens) of 370 nM, an IC50 (SW480; [9]) of over 20 µM and an IC50 (hGSK3b; kinase assay) of over 20 µM. The IC50 (hFLT3; kinase assay) was over 20 µM and the EC50 (INS-1E cells; Rattus norvegicus, INS-1E) was over 10 µM.
For `CC[C@@]1(O)C(=O)OCc2c1cc1n(c2=O)Cc2c-1nc1ccccc1c2/C=N/OC(C)(C)C` [Gimatecan], the EC50 (HeLa cells; Homo sapiens, IC50 / EC50) was over 10 µM, the IC50 (DLD-1; [10]) was 0.315 µM and the EC50 (NCI-H716 cells; [11]) was over 10 µM. For the same molecule, the EC50 [1, 12] was 3.2 nM, the IC50 (hp70S6K1 (RPS6KB1)) was over 20 µM and the IC50 (hKDR; read-out: KDR) was over 20 µM. It also gave an IC50 [2, 7] of 66.7 nM, an IC50 (hJAK2) of over 20 µM and an IC50 (HCT116; [13]) of 66.7 nM. The IC50 [3, 14] was 2 nM, the IC50 (SW480; [15]) was 0.222 µM and the IC50 (hGSK3b) was over 20 µM. For the same molecule, the IC50 (hFLT3) was over 20 µM and the EC50 (INS-1E cells; [16]) was over 10 µM.
`C[C@@H]1C[C@@H]([C@H](O)CC2CC(=O)NC(=O)C2)C(=O)[C@@H](C)C1` showed an EC50 (HeLa cells; IC50 / EC50) of over 10 µM, an IC50 (DLD-1; basal, read-out: Basal_Viability ATP DLD-1) of 3.57 µM and an EC50 (NCI-H716 cells; IC50 / EC50, NCI-H716, read-out: GLP 1 Secretion) of over 10 µM. The EC50 ([1]; IC50 / EC50, C2C12 beta-catenin translocation, read-out: Wnt Pathway) was over 10000 nM, the IC50 (hp70S6K1 (RPS6KB1)) was over 20 µM and the IC50 (hKDR; read-out: KDR) was over 20 µM. For the same molecule, the IC50 ([2]; GSK3b inhibitor pretreated, read-out: GSK3b inh pretreated_Viability ATP HCT116) was 1020 nM, the IC50 (hJAK2) was over 20 µM and the IC50 (HCT116; basal, read-out: Basal_Viability ATP HCT116) was 2020 nM. For the same molecule, the IC50 ([3]; IC50 / EC50, endothelial tube area, ADSC/ECFC co-culture) was 1150 nM, the IC50 (SW480; basal, read-out: Basal_Viability ATP SW480) was 3.04 µM and the IC50 (hGSK3b) was over 20 µM. It also gave an IC50 (hFLT3) of over 20 µM and an EC50 (INS-1E cells; IC50 / EC50, INS-1E) of over 10 µM.
Work on `Cc1ccccc1C(=O)Nc1ccc(C(=O)N2CCCC(N(C)C)c3ccccc32)cc1` (centres unmarked) [Mozavaptan] yielded an EC50 (HeLa cells; Homo sapiens, IC50 / EC50) of over 10 µM, an IC50 (DLD-1; [10]) of 12.8 µM and an EC50 (NCI-H716 cells; [11]) of over 10 µM. The EC50 [1, 12] was 4560 nM, the IC50 (hp70S6K1 (RPS6KB1)) was over 20 µM and the IC50 (hKDR; read-out: KDR) was over 20 µM. For the same molecule, the IC50 [2, 7] was over 20000 nM, the IC50 (hJAK2) was over 20 µM and the IC50 (HCT116; [13]) was 7560 nM. It also gave an IC50 [3, 14] of over 10000 nM, an IC50 (SW480; [15]) of 3.45 µM and an IC50 (hGSK3b) of over 20 µM. The IC50 (hFLT3) was over 20 µM and the EC50 (INS-1E cells; [16]) was over 10 µM.
`CCN(CC)CCNc1ccc(CO)c2sc3ccccc3c(=O)c12` [Hycanthonum] was tested, and the EC50 (HeLa cells; [17]) was over 10 µM, the IC50 (DLD-1; [18]) was over 20 µM and the EC50 (NCI-H716 cells; [19]) was over 10 µM. The EC50 ([1]; read-out: Wnt Pathway) was 2670 nM, the IC50 (hp70S6K1 (RPS6KB1); kinase assay) was 17.1 µM and the IC50 (hKDR; kinase assay, read-out: KDR) was over 20 µM. For the same molecule, the IC50 [2, 20] was over 20000 nM, the IC50 (hJAK2; kinase assay) was over 20 µM and the IC50 (HCT116; [21]) was 8590 nM. It also gave an IC50 [3] of 8350 nM, an IC50 (SW480; [22]) of 6.84 µM and an IC50 (hGSK3b; kinase assay) of over 20 µM. It also gave an IC50 (hFLT3; kinase assay) of over 20 µM and an EC50 (INS-1E cells; [23]) of over 10 µM.
`COC(=O)c1nc(Cl)c(Cl)nc1N` was tested, and the EC50 (HeLa cells; [17]) was 0.511 µM, the IC50 (DLD-1; [18]) was 0.835 µM and the EC50 (NCI-H716 cells; [19]) was over 10 µM. It also gave an EC50 ([1]; read-out: Wnt Pathway) of 156 nM, an IC50 (hp70S6K1 (RPS6KB1); kinase assay) of over 20 µM and an IC50 (hKDR; kinase assay, read-out: KDR) of over 20 µM. For the same molecule, the IC50 [2, 20] was 296 nM, the IC50 (hJAK2; kinase assay) was over 20 µM and the IC50 (HCT116; [21]) was 327 nM. For the same molecule, the IC50 [3] was 865 nM, the IC50 (SW480; [22]) was 0.88 µM and the IC50 (hGSK3b; kinase assay) was over 20 µM. It also gave an IC50 (hFLT3; kinase assay) of 2.86 µM and an EC50 (INS-1E cells; [23]) of over 10 µM.
